Among the data in patent US20250171495A1, “MUTLI-TARGETED SERINE PROTEASE INHIBITORS FOR TREATMENT OF CANCER AND VIRAL INFECTION” (Washington University, priority 2023, published 2025) are IC50 values, retold here.

Holding throughout (format): biochemical
Experiment [1] has as its target T1, matriptase (Homo sapiens, UniProt Q9Y5Y6).
T1 construct: purchased R&D Systems 3946-SEB-010
T1 sequence (Q9Y5Y6 615-855 limits assumed): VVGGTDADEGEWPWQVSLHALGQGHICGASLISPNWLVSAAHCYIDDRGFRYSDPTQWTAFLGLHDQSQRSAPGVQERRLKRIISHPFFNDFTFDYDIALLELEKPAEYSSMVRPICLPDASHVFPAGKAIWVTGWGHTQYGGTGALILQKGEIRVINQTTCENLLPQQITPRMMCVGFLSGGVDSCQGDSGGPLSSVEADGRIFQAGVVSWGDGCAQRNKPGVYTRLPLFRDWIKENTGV
The experiment in a line: Fluorogenic kinetic enzyme inhibitor assay, matriptase.

In experiment [2] the target is T2, hepsin (Homo sapiens, UniProt P05981).
T2 construct: purchased R&D Systems 4776-SE-010
The experiment in a line: Fluorogenic kinetic enzyme inhibitor assay, hepsin.

Experiment [3] concerns the target TMPRSS2 (Homo sapiens, UniProt O15393). In words: Fluorogenic kinetic enzyme inhibitor assay, TMPRSS2. Further details: purchased Cusabio Technology CSB-YP023924HU.

Where two headings read alike, the source gives them in different places.

T2 sequence (P05981 163-417 limits assumed): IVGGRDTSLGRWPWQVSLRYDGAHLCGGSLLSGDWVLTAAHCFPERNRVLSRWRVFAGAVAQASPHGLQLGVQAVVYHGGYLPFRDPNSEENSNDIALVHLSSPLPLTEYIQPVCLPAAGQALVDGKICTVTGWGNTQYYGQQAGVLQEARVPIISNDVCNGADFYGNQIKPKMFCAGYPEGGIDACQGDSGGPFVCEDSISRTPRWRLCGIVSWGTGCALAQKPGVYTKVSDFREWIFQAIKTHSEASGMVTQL
T2 sequence (P05981 1-162 partner limits assumed): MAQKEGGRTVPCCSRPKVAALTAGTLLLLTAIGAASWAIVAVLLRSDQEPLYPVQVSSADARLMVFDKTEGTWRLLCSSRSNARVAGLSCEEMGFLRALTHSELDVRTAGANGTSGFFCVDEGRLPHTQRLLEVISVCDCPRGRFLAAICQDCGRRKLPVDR
TMPRSS2, sequence (O15393 106-492 limits assumed): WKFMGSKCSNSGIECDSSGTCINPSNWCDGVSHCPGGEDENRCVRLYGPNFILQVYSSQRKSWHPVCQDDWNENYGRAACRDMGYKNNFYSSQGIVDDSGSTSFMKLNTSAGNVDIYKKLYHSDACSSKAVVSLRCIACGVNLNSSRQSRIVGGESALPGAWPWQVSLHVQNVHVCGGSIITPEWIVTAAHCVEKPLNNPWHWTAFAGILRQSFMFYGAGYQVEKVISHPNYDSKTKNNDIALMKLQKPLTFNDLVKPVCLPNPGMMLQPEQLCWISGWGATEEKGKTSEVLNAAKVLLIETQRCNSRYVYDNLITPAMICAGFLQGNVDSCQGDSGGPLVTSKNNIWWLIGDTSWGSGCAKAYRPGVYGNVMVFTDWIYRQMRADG

With `CC(=O)N[C@@H](CO)C(=O)NCc1ccc(CC(=O)N[C@@H](CC(C)C)C(=O)N[C@@H](CCCNC(=N)N)C(=O)c2nc3ccccc3s2)cc1` [AJS3200, N-[(S)-1-[(1,3-benzothiazol-2-yl)carbonyl]-4-guanidinobutyl](S)-2-{[(p-{[(S)-2-acetylamino-3-hydroxypropionylamino]methyl}phenyl)methyl]carbonylamino}-4-methylvaleramide], the values for the IC50 in experiment [1] (read-out: Matriptase IC50), in experiment [2] (read-out: Hepsin IC50) and in experiment [3] (read-out: TMPRSS2 IC50) were 9.52 nM, 2.81 nM and 0.376 nM, respectively.
The matching figures for `CC(=O)N[C@@H](CO)C(=O)NCc1ccc(C(=O)N[C@@H](CC(C)C)C(=O)N[C@@H](CCCNC(=N)N)C(=O)c2nc3ccccc3s2)cc1` [AJS4016]: 10.3 nM, 21.8 nM and 0.067 nM.
For the compound `CC(=O)N1C(C(=O)N[C@@H](CCC(=O)OC2CCCCC2)C(=O)N[C@@H](Cc2ccc(F)cc2)C(=O)N[C@@H](CCCNC(=N)N)C(=O)c2nc3ccccc3s2)CC2CCCCC21` (stereo partly drawn) [MF1064, cyclohexyl (S)-4-[(2R)-1-acetyloctahydro-2H-indol-2-ylcarbonylamino]-4-[N-(S)-2-(p-fluorophenyl)-1-[N-(S)-1-[(1,3-benzothiazol-2-yl)carbonyl]-4-guanidinobutylcarbamoyl]ethylcarbamoyl]butyrate], the values for the IC50 in experiment [1], in experiment [2] (read-out: Hepsin IC50) and in experiment [3] (read-out: TMPRSS2 IC50) were 1.23 nM, 0.831 nM and 0.004 nM, respectively.
In the case of `CC(=O)N1c2ccccc2C[C@H]1C(=O)N[C@@H](CCC(=O)OC1CCCCC1)C(=O)N[C@@H](Cc1ccc(F)cc1)C(=O)N[C@@H](CCCNC(=N)N)C(=O)c1nc2ccccc2s1` [MF1065, cyclohexyl (S)-4-[(S)-1-acetyl-2-indolinylcarbonylamino]-4-[N-(S)-2-(p-fluorophenyl)-1-[N-(S)-1-[(1,3-benzothiazol-2-yl)carbonyl]-4-guanidinobutylcarbamoyl]ethylcarbamoyl]butyrate], the half-inhibitory concentration (IC50) was 3.49 nM in experiment [1], 1.76 nM in experiment [2] and 0.062 nM in experiment [3].
In the case of `C=CCOC(=O)CC[C@H](NC(=O)[C@@H]1CC2CCCCC2N1C(C)=O)C(=O)N[C@@H](Cc1ccc(F)cc1)C(=O)N[C@@H](CCCNC(=N)N)C(=O)c1nc2ccccc2s1` (stereo partly drawn) [MF1068, allyl (S)-4-[(2S)-1-acetyloctahydro-2H-indol-2-ylcarbonylamino]-4-[N-(S)-2-(p-fluorophenyl)-1-[N-(S)-1-[(1,3-benzothiazol-2-yl)carbonyl]-4-guanidinobutylcarbamoyl]ethylcarbamoyl]butyrate], the 50% inhibitory concentration (IC50) came out at 0.375 nM in experiment [1], 0.308 nM in experiment [2] (read-out: Hepsin IC50) and 0.083 nM in experiment [3] (read-out: TMPRSS2 IC50).
For the compound `N=C(N)NCCC[C@H](NC(=O)[C@H](Cc1ccccc1)NC(=O)[C@H](CCC(N)=O)NS(=O)(=O)c1ccccc1)C(=O)c1nc2ccccc2s1` [MF1101, N-[(S)-1-[N-(S)-1-[(1,3-benzothiazol-2-yl)carbonyl]-4-guanidinobutylcarbamoyl]-2-phenylethyl](S)-2-(phenylsulfonylamino) glutaramide], the IC50 in experiment [1] (read-out: Matriptase IC50) amounted to 2.89 nM; in experiment [2] (read-out: Hepsin IC50) it was 0.8 nM; in experiment [3] (read-out: TMPRSS2 IC50), 1.02 nM.
The matching figures for `N=C(N)NCCC[C@H](NC(=O)[C@H](Cc1ccccc1)NC(=O)[C@H](CCC(N)=O)NS(=O)(=O)C1CC1)C(=O)c1nc2ccccc2s1` [MF1104, N-[(S)-1-[N-(S)-1-[(1,3-benzothiazol-2-yl)carbonyl]-4-guanidinobutylcarbamoyl]-2-phenylethyl](S)-2-(cyclopropylsulfonylamino) glutaramide]: 5.59 nM, 1.07 nM and 0.273 nM.
For the compound `N=C(N)NCCC[C@H](NC(=O)[C@H](Cc1ccccc1)NC(=O)[C@H](CCC(N)=O)NS(=O)(=O)Cc1ccccc1)C(=O)c1nc2ccccc2s1` [MF1105, N-[(S)-1-[N-(S)-1-[(1,3-benzothiazol-2-yl)carbonyl]-4-guanidinobutylcarbamoyl]-2-phenylethyl](S)-2-(benzylsulfonylamino) glutaramide], the IC50 in experiment [1] (read-out: Matriptase IC50) came to 1.48 nM; in experiment [2] (read-out: Hepsin IC50), 0.31 nM; in experiment [3] (read-out: TMPRSS2 IC50) it was 0.07 nM.
As to `CC(=O)N[C@@H](CCC(C)C)C(=O)N[C@@H](CCC(=O)OC1CCCCC1)C(=O)N[C@@H](Cc1ccc(F)cc1)C(=O)N[C@@H](CCCNC(=N)N)C(=O)c1nc2ccccc2s1` [MF1125, cyclohexyl (S)-4-[(S)-1-acetylamino-4-methylpentylcarbonylamino]-4-[N-(S)-2-(p-fluorophenyl)-1-[N-(S)-1-[(1,3-benzothiazol-2-yl)carbonyl]-4-guanidinobutylcarbamoyl]ethylcarbamoyl]butyrate], the IC50 in experiment [1] came to 3.05 nM; in experiment [2], 3.5 nM; in experiment [3] it was 0.085 nM.
In the case of `N=C(N)NCCC[C@H](NC(=O)[C@H](Cc1ccc(F)cc1)NC(=O)OCC1c2ccccc2-c2ccccc21)C(=O)c1nc2ccccc2s1` [MF1131, (S)-2-(p-fluorophenyl)-1-[N-(S)-1-[(1,3-benzothiazol-2-yl)carbonyl]-4-guanidinobutylcarbamoyl]ethyl (9H-fluoren-9-yl)methanecarbamate], the IC50 in experiment [1] (read-out: Matriptase IC50) came out at 967 nM; in experiment [2] (read-out: Hepsin IC50), 1130 nM; in experiment [3] (read-out: TMPRSS2 IC50), 14 nM.
With `N=C(N)NCCC[C@H](NC(=O)[C@H](Cc1ccc(F)c(F)c1)NC(=O)OCC1c2ccccc2-c2ccccc21)C(=O)c1nc2ccccc2s1` [MF1132, (S)-2-(3,4-difluorophenyl)-1-[N-(S)-1-[(1,3-benzothiazol-2-yl)carbonyl]-4-guanidinobutylcarbamoyl]ethyl (9H-fluoren-9-yl)methanecarbamate], the IC50 turned out to be 144 nM in experiment [1] (read-out: Matriptase IC50), 231 nM in experiment [2] (read-out: Hepsin IC50) and 28.6 nM in experiment [3] (read-out: TMPRSS2 IC50).
The matching figures for `N=C(N)NCCC[C@H](NC(=O)[C@H](Cc1cccc(Cl)c1)NC(=O)OCC1c2ccccc2-c2ccccc21)C(=O)c1nc2ccccc2s1` [MF1134, (S)-2-(m-chlorophenyl)-1-[N-(S)-1-[(1,3-benzothiazol-2-yl)carbonyl]-4-guanidinobutylcarbamoyl] ethyl (9H-fluoren-9-yl)methanecarbamate]: above 20000 nM, 1630 nM and 6.3 nM.
As for `N=C(N)NCCC[C@H](NC(=O)[C@H](CCCCNC(=O)OCc1ccccc1Cl)NC(=O)OCC1c2ccccc2-c2ccccc21)C(=O)c1nc2ccccc2s1` [MF1151, (S)-5-{[(o-chlorophenyl)methyl] (oxycarbonylamino)}-1-[N-(S)-1-[(1,3-benzothiazol-2-yl)carbonyl]-4-guanidinobutylcarbamoyl] pentyl (9H-fluoren-9-yl)methanecarbamate], the results for the 50% inhibitory concentration (IC50) in experiment [1] (read-out: Matriptase IC50) and in experiment [3] (read-out: TMPRSS2 IC50) were 11.1 nM and 283 nM, respectively.
For `N=C(N)NCCC[C@H](NC(=O)[C@@H](NC(=O)OCc1ccccc1)C1Cc2ccccc2C1)C(=O)c1nc2ccccc2s1` [MF2008, (S)-(2-indanyl)[N-(S)-1-[(1,3-benzothiazol-2-yl)carbonyl]-4-guanidinobutylcarbamoyl] methyl-phenylmethanecarbamate], in that order: 75.3 nM and 0.303 nM.
For `CC(C)(C)C[C@H](NC(=O)OCc1ccccc1)C(=O)N[C@@H](CCCNC(=N)N)C(=O)c1nc2ccccc2s1` [MF2009, (S)-3,3-dimethyl-1-[N-(S)-1-[(1,3-benzothiazol-2-yl)carbonyl]-4-guanidinobutylcarbamoyl] butyl-phenylmethanecarbamate], in that order: above 20000 nM and 614 nM.
For the compound `N=C(N)NCCC[C@H](NC(=O)[C@H](Cc1ccc2ccccc2c1)NC(=O)OCC1c2ccccc2-c2ccccc21)C(=O)c1nc2ccccc2s1` [MF2012, (S)-2-(2-naphthyl)-1-[N-(S)-1-[(1,3-benzothiazol-2-yl)carbonyl]-4-guanidinobutylcarbamoyl] ethyl (9H-fluoren-9-yl)methanecarbamate], the figures for the IC50 in experiment [1] (read-out: Matriptase IC50) and in experiment [3] (read-out: TMPRSS2 IC50) were above 20000 nM and 187 nM, respectively.
On to `N=C(N)NCCC[C@H](NC(=O)[C@H](Cc1ccccc1)NC(=O)[C@H](N)Cc1c[nH]c2ccccc12)C(=O)c1nc2ccccc2s1` [PK-1-18A1, N-[(S)-1-[(1,3-benzothiazol-2-yl)carbonyl]-4-guanidinobutyl](S)-2-[(R)-2-amino-3-(3-indolyl)propionylamino]-3-phenylpropionamide], for which the IC50 in experiment [3] (read-out: TMPRSS2 IC50) worked out at 25.8 nM.
The same measure, in the same setting: the value for `N=C(N)NCCC[C@H](NC(=O)[C@H](Cc1ccccc1)NC(=O)[C@H](N)Cc1c[nH]c2ccccc12)C(=O)c1nc2ccc(C(=O)O)cc2s1` [PK-1-45A1, 2-[(S)-2-[(S)-2-[(R)-2-amino-3-(3-indolyl)propionylamino]-3-phenylpropionylamino]-5-guanidinovaleryl]-1,3-benzothiazole-6-carboxylic acid] was 1.94 nM.
The same measure, in the same setting: the value for `CC(=O)N[C@H](Cc1c[nH]c2ccccc12)C(=O)N[C@@H](CC(C)C)C(=O)N[C@@H](CCCNC(=N)N)C(=O)c1nc2ccc(C(=O)O)cc2s1` [PK-1-94, 2-[(S)-2-[(S)-2-[(R)-2-acetylamino-3-(3-indolyl)propionylamino]-4-methylvalerylamino]-5-guanidinovaleryl]-1,3-benzothiazole-6-carboxylic acid] was 1.91 nM; that for `CC(=O)N[C@H]1Cc2ccc(cc2)Oc2ccc(cc2)C[C@@H](C(=O)N[C@@H](CCCNC(=N)N)C(=O)c2nc3ccccc3s2)NC(=O)[C@H](CC(C)C)NC1=O` [VD5076B, N-[(S)-1-[(1,3-benzothiazol-2-yl)carbonyl]-4-guanidinobutyl]-(8S,11S,14S)-14-acetylamino-11-isobutyl-10,13-dioxo-2-oxa-9,12-diazatricyclo[14.2.2.2^3,^6]docosa-1(18),3,5,16,19,21-hexaene-8-carboxamide] was 1.25 nM.

What is called IC50 is the concentration needed to halve the response being measured.
